The values that follow are results of earlier work, collected in patent US7695734B2, “Extended release tablet formulation containing pramipexole or a pharmaceutically acceptable salt thereof” (Boehringer Ingelheim International GmbH, priority 2004, dated 2010).

The conditions of series [1]: light.
In another series the target is dopamine D2 receptor (Homo sapiens, UniProt P14416).

The structures appear in SMILES notation.

dopamine D2 receptor, sequence (P14416 whole entry, species assumed): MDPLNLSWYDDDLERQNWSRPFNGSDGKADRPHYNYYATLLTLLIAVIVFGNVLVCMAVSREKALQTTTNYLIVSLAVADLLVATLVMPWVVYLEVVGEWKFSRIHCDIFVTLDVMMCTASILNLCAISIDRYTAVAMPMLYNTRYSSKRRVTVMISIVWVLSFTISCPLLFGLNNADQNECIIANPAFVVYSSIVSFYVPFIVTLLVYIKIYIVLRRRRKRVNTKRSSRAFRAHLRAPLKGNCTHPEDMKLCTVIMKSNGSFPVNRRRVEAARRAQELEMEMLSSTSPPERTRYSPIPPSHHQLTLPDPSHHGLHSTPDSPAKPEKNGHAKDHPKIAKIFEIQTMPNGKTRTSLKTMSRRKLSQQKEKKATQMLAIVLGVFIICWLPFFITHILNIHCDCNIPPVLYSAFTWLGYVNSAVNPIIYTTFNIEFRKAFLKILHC

`CCCN[C@H]1CCc2nc(N)sc2C1` [Pramipexole, (S)-2-amino-4,5,6,7-tetrahydro-6-(propylamino)benzothiazole]: in series [1], the stability in solution entry is on record as “light sensitive”. The agonist activity entry at dopamine D2 receptor (dopamine D2 receptor) was “full agonist”. At dopamine D2 receptor (dopamine receptors), the receptor selectivity result is recorded as “receptor selectivity for the dopamine D2 family of dopamine receptors”.
